Source: paper PMC9643456, “Matching amino acids membrane preference profile to improve activity of antimicrobial peptides” (Communications Biology, 2022)
Where two headings read alike, the source gives them in different places. Square brackets hold non-standard residues; d marks the D form. Ends that are not written are not given here. Peptide text beside a SMILES is read from it.

Key:
MDR P. aeruginosa = assay: microbe, parasite or virus in culture; settings: for Minimum inhibitory concentrations, MDR P. aeruginosa: CLSI broth microdilution, CAMHB with 50 mg/L Ca2+, 10 mg/L Mg2+, 5 × 10^5 CFU/ml, 18 h 37 °C, no visible turbidity, triplicate, strain CCARM 2180; for MIC in 0.2% albumin and 0.01% AcOH added CLSI standard condition, MDR P. aeruginosa: CAMHB plus 0.2% bovine serum albumin and 0.01% acetic acid, values marked * in Table 2
Outline: (§1)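 MIC was read by eye as the lowest peptide concentration leaving no visible turbidity. Peptide and mid-log cells (final 5 × 10^5 CFU/ml) were combined in cation-adjusted Mueller–Hinton broth containing 50 mg/L calcium and 10 mg/L magnesium and incubated 18 h at 37 °C.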

MDR S. aureus = assay: microbe, parasite or virus in culture; settings: for Minimum inhibitory concentrations, MDR S. aureus: CLSI broth microdilution, CAMHB with 50 mg/L Ca2+, 10 mg/L Mg2+, 5 × 10^5 CFU/ml, 18 h 37 °C, triplicate, strain KCCM 40510; for MIC in 0.2% albumin and 0.01% AcOH added CLSI standard condition, MDR S. aureus: CAMHB plus 0.2% bovine serum albumin and 0.01% acetic acid, values marked * in Table 2
Outline: as §1

MDR A. baumannii = assay: microbe, parasite or virus in culture; settings: for Minimum inhibitory concentrations, MDR A. baumannii: CLSI broth microdilution, CAMHB with 50 mg/L Ca2+, 10 mg/L Mg2+, 5 × 10^5 CFU/ml, 18 h 37 °C, triplicate, strain ATCC BAA-1605; for MIC in 0.2% albumin and 0.01% AcOH added CLSI standard condition, MDR A. baumannii: CAMHB plus 0.2% bovine serum albumin and 0.01% acetic acid, values marked * in Table 2
Outline: as §1

MDR E. faecalis = assay: microbe, parasite or virus in culture; settings: for Minimum inhibitory concentrations, MDR E. faecalis: CLSI broth microdilution, CAMHB with 50 mg/L Ca2+, 10 mg/L Mg2+, 5 × 10^5 CFU/ml, 18 h 37 °C, triplicate, strain ATCC 51575; for MIC in 0.2% albumin and 0.01% AcOH added CLSI standard condition, MDR E. faecalis: CAMHB plus 0.2% bovine serum albumin and 0.01% acetic acid, values marked * in Table 2
Outline: as §1

human red blood cells = assay: Hemolytic activity; type: cell-based
Outline: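 Peptides (100 μM down to 0.78 μM) were incubated with 4% final human erythrocytes in PBS for 18 h at 37 °C. Supernatant absorbance at 540 nm after centrifugation was scaled to 1% Triton X-100 (100%) and no peptide (0%); melittin served as positive control; triplicate runs.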

| Compound | Minimum inhibitory concentrations, MDR P. aeruginosa (MDR P. aeruginosa) [µM] | Minimum inhibitory concentrations, MDR S. aureus (MDR S. aureus) [µM] | Minimum inhibitory concentrations, MDR A. baumannii (MDR A. baumannii) [µM] | Minimum inhibitory concentrations, MDR E. faecalis (MDR E. faecalis) [µM] | Hemolysis percent, 25 μM (human red blood cells; red cells of human, 18 h, 25) [%] | Hemolysis percent, 50 μM (human red blood cells; red cells of human, 18 h, 50) [%] | Hemolysis percent, 100 μM (human red blood cells; red cells of human, 18 h, 100) [%] | Hemolysis percent, 25 μM (human red blood cells) [%] | Hemolysis percent, 50 μM (human red blood cells) [%] | Hemolysis percent, 100 μM (human red blood cells) [%] | MIC in 0.2% albumin and 0.01% AcOH added CLSI standard condition, MDR P. aeruginosa (MDR P. aeruginosa) [µM] | MIC in 0.2% albumin and 0.01% AcOH added CLSI standard condition, MDR S. aureus (MDR S. aureus) [µM] | MIC in 0.2% albumin and 0.01% AcOH added CLSI standard condition, MDR A. baumannii (MDR A. baumannii) [µM] | MIC in 0.2% albumin and 0.01% AcOH added CLSI standard condition, MDR E. faecalis (MDR E. faecalis) [µM] | Hemolysis percent, 50 μM (human red blood cells; red cells of human, 18 h, 50 μM) [%] |
| --- | --- | --- | --- | --- | --- | --- | --- | --- | --- | --- | --- | --- | --- | --- | --- |
| CC(C)C[C@@H](NC(=O)[C@H](N)Cc1c[nH]c2ccccc12)C(=O)N[C@H](CC(C)C)C(=O)N[C@H](Cc1c[nH]c2ccccc12)C(=O)N[C@H](C)C(=O)NCC(=O)N[C@H](C)C(=O)N[C@H](CCCNC(=N)N)C(=O)N[C@H](CCCCN)C(=O)N[C@H](CCCCN)C(=O)N[C@H](CCCNC(=N)N)C(N)=O [WCopW21] (H-[dW][dL][dL][dW][dA]G[dA][dR][dK][dK][dR]-NH2) | > 20 | > 20 | > 20 | > 20 | 0.60 | 1.03 | 1.74 |  |  |  |  |  |  |  |  |
| NH2 wF l l w i g l r k k r CONH2 [WCopW18, WCopW analog] | 5 | 1.25 | 1.25 | 2.5 |  |  |  | 1.89 | 4.52 | 6.74 |  |  |  |  |  |
| NH2 wM l l w i g l r k k r CONH2 [WCopW15, WCopW analog] | 10 | 1.25 | 1.25 | 2.5 |  |  |  | 0.65 | 1.16 | 4.04 |  |  |  |  |  |
| WLLLLLRRR-NH2 [AcWL-1] | > 20 | 10 | 2.5 | 10 | 11.89 ±1.24 |  | 36.35 ±3.00 |  |  |  | > 20 | 5 | 1.25 | 5 | 20.52 ±1.25 |
| WLLLLWRRR-NH2 [AcWL-3] | > 20 | 5 | 2.5 | 5 | 16.44 ±0.89 | 19.80 ±0.76 | 36.71 ±3.91 |  |  |  | > 20 | 2.5 | 0.63 | 2.5 |  |
